# pKi: −log10 of the molar value.
# Assays:
# [1] = target: T1, human α-thrombin (Homo sapiens, UniProt P00734); assay: Determination of Ki for thrombin inhibition (chromogenic or fluorogenic substrate, Dixon); type: biochemical
# T1 construct: 50 μl human α-thrombin (Kordia); purchased Kordia
# Procedure: The Ki values are the average values of at least three calculations.
# For determining the thrombin inhibiting effect of all reversibly binding inhibitors and inhibitor conjugates with inhibiting constants smaller than 1 nM, a fluorescence spectrometer (LS50B from the company Perkin Elmer) was used. […] The Ki values are the average values of at least three calculations.
# [2] = target: T2, trypsin (Bos taurus, UniProt P00760); assay: Ki values for trypsin, determined analogously; type: biochemical; conditions: Table I, formula (II) compounds
# T2 sequence (P00760 24-246): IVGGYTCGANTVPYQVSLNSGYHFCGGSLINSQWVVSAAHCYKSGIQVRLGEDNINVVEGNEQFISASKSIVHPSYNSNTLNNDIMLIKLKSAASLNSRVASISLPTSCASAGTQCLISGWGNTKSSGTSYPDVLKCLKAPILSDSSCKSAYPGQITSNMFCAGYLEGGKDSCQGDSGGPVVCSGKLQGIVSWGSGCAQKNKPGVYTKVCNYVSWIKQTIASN
# Procedure: The Ki values for trypsin were determined analogously.
# For optimizing the inhibitor conjugates, in particular of the following Examples 1 and 2, suitable groups R1 were sought which allow as strong a thrombin inhibition as possible. For examining the selectivity of the compounds, the inhibiting constants for trypsin were determined as well. The higher the quotient [KiTrypsin/KiThrombin], the more selectively the compound functions as a thrombin inhibitor. In order to facilitate the synthesis, this optimization was first carried out without coupling a polyalkylene glycol group to inhibitor molecules of formula (II) as listed in Table I. These compounds, which are active as thrombin inhibitors themselves, can be used as synthetic intermediates for the inhibitor conjugates of formula (I). As a central component, a glycyl-prolyl-dipeptide was consistently incorporated into the inhibitors.
# [3] = Table I, formula (II) compounds
# [4] = Table 2, formula (III) compounds
Structure (SMILES),"pKi [1, 3]","Ki Trypsin/Ki Thrombin ([1]; Table I, selectivity quotient)",pKi [2],"pKi [1, 4]","Ki Trypsin/Ki Thrombin ([1]; Table 2, selectivity quotient)"
N=C(N)c1ccc(CNC(=O)[C@@H]2CCCN2C(=O)CNS(=O)(=O)c2cccc(Cl)c2Cl)cc1 [compound 17],7.90,0.87,–,–,–
Cc1cc(C)c(C)c(S(=O)(=O)NCC(=O)N2CCC[C@H]2C(=O)NCc2ccc(C(=N)N)cc2)c1C [compound 18],7.87,2.5,–,–,–
CC(C)c1cc(C(C)C)c(S(=O)(=O)NCC(=O)N2CCC[C@H]2C(=O)NCc2ccc(C(=N)N)cc2)c(C(C)C)c1 [compound 19],7.87,0.67,8.04,–,–
N=C(N)c1ccc(CNC(=O)[C@@H]2CCCN2C(=O)CNS(=O)(=O)CC2CCCCC2)cc1 [compound 20],7.87,0.22,8.51,–,–
N=C(N)c1ccc(CNC(=O)[C@@H]2CCCN2C(=O)CNS(=O)(=O)c2ccc(Cl)cc2Cl)cc1 [compound 21],7.82,1.2,–,–,–
Cc1ccc(S(=O)(=O)NCC(=O)N2CCC[C@H]2C(=O)NCc2ccc(C(=N)N)cc2)cc1 [compound 22],7.79,0.88,–,–,–
N=C(N)c1ccc(CNC(=O)[C@@H]2CCCN2C(=O)CNS(=O)(=O)c2ccc(Cl)c(Cl)c2Cl)cc1 [compound 23],7.79,0.71,–,–,–
Cc1cc(C)c(S(=O)(=O)NCC(=O)N2CCC[C@H]2C(=O)NCc2ccc(C(=N)N)cc2)c(C)c1 [compound 24],7.78,0.80,–,–,–
Cc1cc(Cl)cc(Cl)c1S(=O)(=O)NCC(=O)N1CCC[C@H]1C(=O)NCc1ccc(C(=N)N)cc1 [compound 25],7.77,1.1,–,–,–
CCc1ccc(S(=O)(=O)NCC(=O)N2CCC[C@H]2C(=O)NCc2ccc(C(=N)N)cc2)cc1 [compound 26],7.72,2.6,–,–,–
N=C(N)c1ccc(CNC(=O)[C@@H]2CCCN2C(=O)CNS(=O)(=O)c2ccccc2Cl)cc1 [compound 27],7.71,0.98,–,–,–
Cc1c(C)c(S(=O)(=O)NCC(=O)N2CCC[C@H]2C(=O)NCc2ccc(C(=N)N)cc2)c(C)c2c1OC(C)(C)C2 [compound 28],7.52,1.2,7.43,–,–
CC(C)(C)c1ccc(S(=O)(=O)NCC(=O)N2CCC[C@H]2C(=O)NCc2ccc(C(=N)N)cc2)cc1 [compound 29],7.49,0.32,–,–,–
N=C(N)c1ccc(CNC(=O)[C@@H]2CCCN2C(=O)CNS(=O)(=O)c2cccc([N+](=O)[O-])c2)cc1 [compound 30],7.42,0.42,–,–,–
N=C(N)c1ccc(CNC(=O)[C@@H]2CCCN2C(=O)CNS(=O)(=O)CCc2ccccc2)cc1 [compound 31],7.38,0.39,7.78,–,–
N=C(N)c1ccc(CNC(=O)[C@@H]2CCCN2C(=O)CNS(=O)(=O)/C=C/c2ccccc2)cc1 [compound 32],7.35,0.05,–,–,–
N#Cc1ccc(S(=O)(=O)NCC(=O)N2CCC[C@H]2C(=O)NCc2ccc(C(=N)N)cc2)cc1 [compound 34],7.12,0.33,–,–,–
N=C(N)c1ccc(CNC(=O)[C@@H]2CCCN2C(=O)CNS(=O)(=O)c2ccc([N+](=O)[O-])cc2)cc1 [compound 35],6.94,0.11,–,–,–
N=C(N)c1ccc(CNC(=O)C2CCCN2C(=O)C(CO)NS(=O)(=O)c2ccc3ccccc3c2)cc1 (stereo not shown) [compound 38],–,–,–,8.60,10.9
N=C(N)c1ccc(CNC(=O)C2CCCN2C(=O)C(CC(N)=O)NS(=O)(=O)c2ccc3ccccc3c2)cc1 (stereo not shown) [compound 39],–,–,–,8.47,11
N=C(N)c1ccc(CNC(=O)C2CCCN2C(=O)C(CCC(N)=O)NS(=O)(=O)c2ccc3ccccc3c2)cc1 (stereo not shown) [compound 40],–,–,–,8.42,4.2
N=C(N)c1ccc(CNC(=O)C2CCCN2C(=O)C(CC(=O)O)NS(=O)(=O)c2ccc3ccccc3c2)cc1 (stereo not shown) [compound 42],–,–,–,7.62,2.9
COc1ccc(S(=O)(=O)NC(CC(=O)NCc2cccc(C#N)c2)C(=O)N2CCCC2C(=O)NCc2ccc(C(=N)N)cc2)cc1 (stereo not shown) [compound 46],–,–,–,10.21,1163
COc1ccc(S(=O)(=O)N[C@@H](CC(=O)O)C(=O)N2CCC[C@H]2C(=O)NCc2ccc(C(=N)N)cc2)cc1 [compound 55],–,–,–,8.80,48
